Results as given in patent US20230003644A1, “PHOTONIC CHIP FOR MONITORING ACTIVITIES OF LIVING CELLS” (THE UNIVERSITY OF HONG KONG, priority 2021, published 2023).

Tests used:
intracellular Ca2+ = experiment: Living cell calcium tracking (Fluo-3 fluorescence); assay type: cell-based; details: low-dose thrombin (2 U/mL)
Method: After the cells were grown on the confocal dish for 24 h, they were washed by PBS and cultured in living cell fluorescence imaging medium (Thermo) with the calcium indicator (Fluo-3, Invitrogen, […]) and pluronic F-127 (0.02%) in incubator for 1 h. They were then washed by fresh culture medium twice and incubated for a further 30 min to allow complete de-esterification of intracellular acetoxymethyl esters. The living cell fluorescent images were then captured by fluorescence microscope (Zeiss) with the frame rate of 1 side/min.

NIH 3T3 cells = experiment: Label-free monitoring of cell adhesion, morphology and intracellular dynamics on the LED/GaN chipscope (photocurrent and DIC imaging); assay type: cell-based
From the text: As a monolithic integration design of the chip, the same shared sapphire substrate can realize the light coupling from the LED to the PD without any external optics, as shown in FIG. 5a. In particular, when the lights emitted from LED reached external media with a low RI (i.e., nmedia<nsapphire), total internal reflection occurred at the sapphire/media interface, causing some light to be reflected into the light-detecting region. The intensity of the reflected light is then detected by the PD. Since the critical angle enlarges as the refractive index increases, less light is reflected back to the PD, resulting in a decrease in the photocurrent. When the cells are in contact with the chip surface, the sensor provides a rapid photocurrent response due to the obvious RI change from sapphire-culture medium (1.78 to 1.337) to sapphire-cells (1.78 to 1.343-1.48). Furthermore, the formation of strong cell-substrate adhesion and/or the evolution of cell morphology could also result in changes in the recorded photocurrent.
NIH 3T3 cells are used in the present study due to their rapid adhesion response and significant cell area changes during spreading. First performed a live/dead assay test to evaluate the potential phototoxicity of the chip to the cells. […] Next, after the chip was stabilized in the incubator at 37° C., the cell suspension was added into the chip chamber. […] Benefitting from the integrated mini-DIC imaging system, we can clearly capture the cell morphology changes in real-time. As shown in the top panel of FIG. 7b, the round cells gradually precipitated onto the chip surface in the first 30 min (step 1), and then started to extend in the next 4 h (step 2). After that, they continued to flatten and formed a dense monolayer sheet covering the entire chip surface (step 3). These observed cell morphology changes closely matched the optical response of the chip, indicating the successful integration of GaN chip-based sensing and DIC imaging units in our system for cellular activity monitoring. Additionally, to mimic the cell detachment process (step 4), we treated the cells with sodium dodecyl sulfate (SDS), a known surfactant that can detach and lyse adhering cells from culture dishes or flasks.
• Cells (NIH 3T3, 0.3 million/mL, 500 uL, 37° C.) were seeded on the LED chip and transferred to the incubator (37° C.). Then the ammeter started to monitor the optical current at specific time points. The control experiment was performed by monitoring the solo cell culture medium with an identical chip (DMEM, 500 uL, 37° C.). • The bright-field images of cells were collected at specific time points to monitor the initial stage of cells adhesion and extension. The cells were cultured on sapphire, the substrate of which was identical with the top layer of LED chips.
3T3 cells were grown on the chip surface for overnight and then were washed once and replaced with HEPES buffer (HBSS). After the system was restabilized, various concentrations of thrombin (MCE) were injected into the cell chamber. The signal dynamics were recorded by a meter.

[1] = tested on: human lung adenocarcinoma cells (A549); experiment: GaN chipscope drug screening: cytotoxicity of an anticancer drug on an A549 cell monolayer (photocurrent and imaging); assay type: cell-based; details: A549, 5 hours of drug treatment
[2] = tested on: human lung adenocarcinoma cells (A549); experiment: as above; assay type: cell-based; details: for decrease of cell confluence: after 24 h incubation
Method: The A549 cells are seeded in the chamber of the platform and cultured for 24 h for fully spreading. Afterward, 10 μM, 30 μM or 50 μM of β-lapachone is added into the chambers, respectively.
Additionally, the photocurrent curves offered valuable practical information for the study of drug-cell interactions. First, by plotting the slope of the tangent line, the speed of cell response at different periods was analyzed. […] Indeed, a higher dose is more toxic and induces faster cell death. Thirdly, by coupling the imaging system, we were able to qualitatively and quantitatively analyze the cell-drug interactions. As shown in FIG. 9b-d, the cells shrank in a dose-dependent manner after β-lapachone treatment. Specifically, cells treated with a lower dose (10 μM) slowly shrank over time, but there is no obvious increase in intercellular spaces during the 24 h. […] It is believed that the increase in photocurrent in higher dose-treated cells is contributed by both cell morphology changes as well as by cell intracellular dynamics alternation. Further, the cell confluency is calculated based on the photos taken by the imaging system.

[3] = tested on: human monocytic THP-1 cells; experiment: GaN chipscope monitoring of cell differentiation (cell area and roundness from images); assay type: cell-based; details: THP-1 monocyte to M0, PMA 25 ng/mL, 3-9 h after stimulation
From the text: The cell refractive index is an intrinsic optical parameter that varies with different cell phenotypes. This inspired the exploration of whether the sensing platform could track online the dynamics of cell differentiation and distinguish the different cell phenotypes. In this experiment, human monocytic THP-1 cells are employed as the cell model due to their multi-phenotypic characteristics, including the initial suspended monocyte, adhered macrophage (M0), and two major polarized states (adhered M1 and M2). Here, THP-1 cells differentiated from suspended state (monocyte) to adhered M0 state by phorbol 12-myristate 13-acetate (PMA), followed by induction of the resultant M0 cells to polarize to M1 by LPS/FN-gamma. The process is monitored throughout by the GaN chipscope system (FIG. 10a).
Consistent with the photocurrent signal, the imaging system recorded a fast cell rolling behavior in the initial 30 min before the cells settled down (FIG. 10b). PMA (25 ng/mL) is then loaded to trigger monocyte to macrophage differentiation. It is evident from the photocurrent signal that monocytes responded strongly against PMA in 3-9 h after stimulation, and this response became mild in the following 11 h (FIG. 10b).
Phorbol-12-myristate-13-acetate (PMA, MCE, 25 ng/mL) was used to induce monocytes differentiation to M0 macrophages. […]

THP-1 cells = experiment: Flow cytometry of macrophage surface markers CD11b and CD80; assay type: cell-based, human; details: THP-1 cells after incubation with PMA
Method: Phorbol-12-myristate-13-acetate (PMA, MCE, 25 ng/mL) was used to induce monocytes differentiation to M0 macrophages. For further polarization, 100 ng/mL lipopolysaccharide (LPS, Thermo) and 20 ng/mL interferon-γ (IFN-γ, Thermo) were added to the culture to induce M1 generation. The cells were stimulated to M0 and M1 macrophages for 24 h. Flow cytometry and immunofluorescence staining were used to assess the expression of macrophage-specific cell surface marker: CD11 b for monocyte/macrophage differentiation and CD 80 for M1 macrophage polarization.
The harvested cells were washed with cold PBS and then the Fc receptor binding sites were blocked by incubating with Human TruStain FcX™ (422302, Biolegned) on ice for 20 min. The cells were then incubated with either FITC labeled CD 11 b (301329, Biolegend) or FITC labeled CD 80 (305206, Biolegend) in darkness for another 30 min. After centrifugation, the cells were washed twice with FACS buffer (PBS containing 2% BSA) and immediately measured by the flow cytometer Novoexpress (Agilent).

Compound: thrombin
- calcium fluorescence response of living cells (intracellular Ca2+): biphasic cell response
- time at which photocurrent reached a plateau (NIH 3T3 cells; 3T3 monolayer, thrombin 150 U/mL): 50 min
- maximal change (increase) of photocurrent (NIH 3T3 cells; 3T3 monolayer, thrombin high dose 150 U/mL): 1.66%
- decrease of photocurrent signal (NIH 3T3 cells; 3T3 monolayer, thrombin low dose 2 U/mL, first 10 min, returned to initial level in next 30 min): 0.94%

Compound: CCCCCCCCCCCCOS(=O)(=O)[O-].[Na+] [SDS, sodium dodecyl sulfate]
- rapid increase of photocurrent signal after addition (NIH 3T3 cells; 3T3 monolayer, cell detachment step): 4.24%
- detachment of cell monolayer from chip surface (NIH 3T3 cells; 3T3 monolayer, within a few seconds of loading): completely detached

Compound: Cc1ccc2c(c1)C(=O)C1(O)CCN(c3ccccc3)C1=N2 (centres unmarked) [blebbistatin]
- cell morphology after treatment (imaging) (NIH 3T3 cells; 3T3 cells, 50 μM, next 1 h, increased cell gaps and dendritic morphologies): gradually shrank
- increase of relative optical current compared to the control group (NIH 3T3 cells; 3T3 cells, blebbistatin 50 μM, treated for 50 min): 1.02%

Compound: CC1(C)CCC2=C(O1)c1ccccc1C(=O)C2=O [β-lapachone]
- photocurrent response monitored by the LED sensor during drug treatment [1]: gradually increased
- reaction time of the cells from photocurrent curve ([2]; A549, 10 μM): 20.2 h
- reaction time of the cells from photocurrent curve ([2]; A549, 30 μM): 11.6 h
- reaction time of the cells from photocurrent curve ([2]; A549, 50 μM): 12.5 h
- cytotoxicity in A549 cells (photocurrent increase with drug concentration) ([2]; A549, 10, 30, 50 μM): dose-depend cytotoxicity
- speed of cell response (slope of photocurrent curve) at 50 μM relative to 10 μM ([2]; A549, first 5 h of stimulation): 6.05 times
- speed of cell response (slope of photocurrent curve) at 50 μM relative to 30 μM ([2]; A549, first 5 h of stimulation): 2.85 times
- decrease of cell confluence ([2]; A549, high dose (50 μM)): 23.1%
- decrease of cell confluence ([2]; A549, low dose (10 μM)): 0%
- decrease of cell confluence ([2]; A549, medium dose (30 μM)): 19.0%

Compound: CCCCCCCCCCCCCC(=O)O[C@@H]1[C@@H](C)[C@@]2(O)[C@@H](C=C(CO)C[C@]3(O)C(=O)C(C)=C[C@@H]23)[C@@H]2C(C)(C)[C@]12OC(C)=O [PMA, phorbol 12-myristate 13-acetate]
- increase in cell spreading area [3]: 137%
- expression of CD11b (THP-1 cells): significantly increased
